From patent publication US4355101A, “Phenylmercaptoazole compounds” (Polaroid Corporation, priority 1981, dated 1982)
Read-outs that look alike come from different tables or passages of the source. Each block holds one molecule with its values, some of them ahead of it.

How the values were obtained:
[1] = pKa of substituents on the phenyl ring, measured for unblocked phenylmercaptotetrazole compounds; format: physicochemical; settings: substituent on phenyl ring of unblocked phenylmercaptotetrazole
Excerpt: Table I lists the pKa of various substituents on the phenyl ring as measured for unblocked phenylmercaptotetrazole compounds.

[2] = Solubility product of the silver salt; format: physicochemical; settings: for Effect of pH / ionization on solubility of the silver salt: pH 7 vs pH 13.5
[3] = Solubility of the silver salts in the presence of excess amounts of their anions; format: physicochemical; settings: for Solubility of silver salt (total silver): 4×10^-3 molar in silver
Description: The solubilities of the silver salts of PMT and compound VIII in the presence of excess amounts of their anions were measured at pH 7.0 and 13.5. Each solution was 4×10^-3 molar in silver. The results are shown in Table III wherein the solubility data is expressed in μ moles/liter of total silver.

[4] = pH 7; Z.C.H. Tan, Photogr. Sci. Eng. 19, 17 (1975); cited from earlier work
[5] = Molar ratio Compound/Ag 1.25/1, pH 7.0
[6] = Molar ratio Compound/Ag 1.25/1, pH 13.5
[7] = Molar ratio Compound/Ag 1.75/1, pH 7.0
[8] = Molar ratio Compound/Ag 1.75/1, pH 13.5
[9] = Molar ratio Compound/Ag 2.13/1, pH 7.0
[10] = Molar ratio Compound/Ag 2.13/1, pH 13.5
[11] = Molar ratio Compound/Ag 2.5/1, pH 7.0
[12] = Molar ratio Compound/Ag 2.5/1, pH 13.5
[13] = Molar ratio Compound/Ag 4.5/1, pH 7.0
[14] = Molar ratio Compound/Ag 4.5/1, pH 13.5
[15] = Molar ratio Compound/Ag 7.5/1, pH 7.0
[16] = Molar ratio Compound/Ag 7.5/1, pH 13.5

Compound: CS(=O)(=O)Nc1ccc(-n2nnnc2S)cc1 [(p) NHSO2 CH3]
pKa [1]: 8.65 ± 0.1

Compound: Oc1ccccc1-n1nnnc1S [(o) OH]
pKa [1]: 9.5 ± 0.1

Compound: Oc1ccc(-n2nnnc2S)cc1 [(p) OH, 1-(4-hydroxyphenyl)-5-mercaptotetrazole]
pKa [1]: 10.1 ± 0.1

Compound: Sc1nnnn1-c1ccccc1 [PMT, 1-phenyl-5-mercaptotetrazole]
Effect of pH / ionization on solubility of the silver salt [2]: relatively unaffected by pH
Ksp of silver salt ([2]; pH 13.5): 4 × 10^-16
Solubility of silver salt (total silver) [3, 5]: < 1 μ moles/liter
Solubility of silver salt (total silver) [3, 6]: 1 μ moles/liter
Solubility of silver salt (total silver) [3, 7]: < 1 μ moles/liter
Solubility of silver salt (total silver) [3, 8]: 2 μ moles/liter
Solubility of silver salt (total silver) [3, 9]: 1 μ moles/liter
Solubility of silver salt (total silver) [3, 10]: 4 μ moles/liter
Solubility of silver salt (total silver) [3, 11]: 3 μ moles/liter
Solubility of silver salt (total silver) [3, 12]: 8 μ moles/liter
Solubility of silver salt (total silver) [3, 13]: 15 μ moles/liter
Solubility of silver salt (total silver) [3, 14]: 18 μ moles/liter
Solubility of silver salt (total silver) [3, 15]: 58 μ moles/liter
Solubility of silver salt (total silver) [3, 16]: 63 μ moles/liter
Ksp of silver salt [4]: ~3 × 10^-16

Compound: CC(=NO)c1ccc(-n2nnnc2S)cc1 [IX]
Ksp of silver salt ([2]; pH 7): ~ 1 × 10^-16
Effect of pH / ionization on solubility of the silver salt [2]: increased the solubility of the silver salt of the compound VIII by an order of magnitude
Ksp of silver salt ([2]; pH 13.5): 2 × 10^-15
Solubility of silver salt (total silver) [3, 5]: < 1 μ moles/liter
Solubility of silver salt (total silver) [3, 6]: 19 μ moles/liter
Solubility of silver salt (total silver) [3, 7]: < 1 μ moles/liter
Solubility of silver salt (total silver) [3, 8]: 44 μ moles/liter
Solubility of silver salt (total silver) [3, 9]: < 1 μ moles/liter
Solubility of silver salt (total silver) [3, 10]: 93 μ moles/liter
Solubility of silver salt (total silver) [3, 11]: 2 μ moles/liter
Solubility of silver salt (total silver) [3, 12]: 140 μ moles/liter
Solubility of silver salt (total silver) [3, 13]: 2 μ moles/liter
Solubility of silver salt (total silver) [3, 14]: 320 μ moles/liter
Solubility of silver salt (total silver) [3, 15]: 5 μ moles/liter
Solubility of silver salt (total silver) [3, 16]: 1400 μ moles/liter
Silver solvent action ([3]; high pH): weak to moderate silver solvent
Solubility of silver salt compared with PMT ([3]; neutral solution): even less soluble salt in neutral solution than does PMT

Compound: CC(=NO)c1ccc(-n2nnnc2S)cc1 [drawing 14]
pKa [1]: 11.4

Second part, the molecule after the results:

pKa [1]: 9.95 ± 0.1
Compound: NS(=O)(=O)c1ccc(-n2nnnc2S)cc1 [(p) SO2 NH2, 1-(4-sulfonamidophenyl)-5-mercaptotetrazole]

pKa [1]: 8.8 ± 0.1
Compound: Cc1ccc(S(=O)(=O)Nc2ccc(-n3nnnc3S)cc2)cc1

pKa [1]: 11.55 ± 0.1
Compound: CNS(=O)(=O)c1ccc(-n2nnnc2S)cc1 [(p) SO2 NHCH3]

pKa [1]: 9.55 ± 0.1
Compound: O=S(=O)(Nc1ccccc1)c1ccc(-n2nnnc2S)cc1
